Literature values as cited in US20100093659A1, “POLYVALENT BIOCONJUGATES” (GLYKOS FINLAND OY, priority 2006, published 2010).

Test system: Helicobacter pylori
Conditions: monomeric form

CC(=O)N[C@H]1[C@H]([C@H](O)[C@H](O)CO)O[C@@](O[C@H]2[C@@H](O)[C@@H](CO)O[C@@H](O[C@H]3[C@H](O)[C@@H](O)C(O)O[C@@H]3CO)[C@@H]2O)(C(=O)O)C[C@@H]1O (stereo partly shown) [3′-sialyllactose]
concentrations at which adhesion of Helicobacter pylori to gastrointestinal epithelial cells was inhibited: millimolar
